The nature of one series: Kinetic solubility study. The note with it: 37 °C, kinetic from dmso stock.
For the next series, the target named is Syk (Homo sapiens, UniProt P43405). As to the kind of experiment: High throughput Syk assay (TR-FRET, KinEASE). The series is classed as biochemical. The conditions noted are these: Syk TR-FRET assay of Example B2; 3 μM ATP, 0.5 nM Syk. The protocol:
The following high throughput Syk assay was performed on the compounds of Table 1 as follows.
Syk activity was measured by detecting phosphorylated peptide substrate formation using antibody against phosphorylated peptide substrate. This is a time-resolved fluorescence resonance energy transfer (TR-FRET) immunoassay, based on the KinEASE Assay (Cisbio). […] Test compounds (in DMSO) were spotted into 384 well plates using a Labcyte® Echo 550 Liquid Handling System prior to addition of Syk enzyme and peptide substrate. Reaction solutions were delivered using a Multi-Flo (Bio-Tek Instruments). The enzyme and peptide solution was incubated with compound for 60 minutes at room temp before the reaction was initiated by the addition of ATP. […] The europium donor was excited using a 340-nm excitation filter with a 30-nm band pass. Energy transfer to the tracer was measured using a filter centered at 665 nm with a 10 nm bandpass. This signal was then referenced to the emission from europium peak, using a 615 nm, 10-nm bandpass filter. The “emission ratio” was calculated as the 665 nm signal divided by the 615 nm signal. Percentage of inhibition was calculated as below:
% Inhibition=100×(RatioSample−Ratio0% Inhibition)/(Ratio100% Inhibition−Ratio0% Inhibition)

Where [1] appears, read: aqueous media, pH 2, aqueous buffer.
[2] abbreviates: aqueous media, pH 5.4, aqueous buffer.
[3] abbreviates: aqueous media, pH 7.4, aqueous buffer.

≈ marks a conversion by molar mass, not a printed value.

Broadly, the solubility is the concentration that dissolves in the medium under given conditions. A high value points to a readily soluble substance. A word on the IC50: it is the concentration that gives 50% inhibition. Low readings indicate higher potency, high ones lower potency. What is called melting point is the temperature of the solid-liquid transition.

Experimental for Kinetic solubility study: The compounds tested (as listed in Table 2 below) were dissolved in dimethyl sulfoxide (DMSO) at a 10 mM concentration. A 3 μL sample aliquot of the DMSO solution is then added to 297 μL of desired aqueous media (pH 2, pH 5.4, and pH 7.4). The sample is then incubated for 24 hrs at 37° C. with shaking. After 24 hrs the samples are centrifuged, an aliquot of the supernatant liquid is removed and analyzed by HPLC. The compound concentration in the sample is determined by reference to a sample of the compound with known standard concentration.

For the molecule `COc1cc(Nc2nc(-c3cnc4c(c3)NCCO4)cn3ccnc23)ccc1N1CCOCC1` [Compound 1, 6-(2,3-dihydro-1H-pyrido[2,3-b][1,4]oxazin-7-yl)-N-(3-methoxy-4-morpholinophenyl)imidazo[1,2-a]pyrazin-8-amine], the solubility at 24 h turned out to be 98 µM (≈ 45 µg/mL) in the series “Kinetic solubility study” (setting [1]), 95 µM (≈ 43.7 µg/mL) in the series “Kinetic solubility study” (setting [2]) and 95 µM (≈ 43.7 µg/mL) in “Kinetic solubility study” (setting [3]). The IC50 at Syk is 3 nM. As to `COc1cc(Nc2nc(-c3ccc4c(c3)CNCCO4)cn3ccnc23)ccc1N1CCOCC1` [Compound 3], the solubility at 24 h in the series “Kinetic solubility study” (setting [1]), in “Kinetic solubility study” (setting [2]) and in “Kinetic solubility study” (setting [3]) was 100 µM (≈ 47.3 µg/mL) each time. Also, the IC50 at Syk came to 7 nM. With `COc1cc(Nc2nc(-c3ccc4c(c3)NCCO4)cn3ccnc23)ccc1N1CCN(C2COC2)CC1` [Compound 4, 6-(3,4-dihydro-2H-benzo[b][1,4]oxazin-6-yl)-N-(3-methoxy-4-(4-(oxetan-3-yl)piperazin-1-yl)phenyl)imidazo[1,2-a]pyrazin-8-amine], the solubility at 24 h in the series “Kinetic solubility study” (setting [1]) is 94 µM (≈ 48.3 µg/mL); in “Kinetic solubility study” (setting [2]), 94 µM (≈ 48.3 µg/mL); in “Kinetic solubility study” (setting [3]), 57 µM (≈ 29.3 µg/mL). The same molecule gave an IC50 against Syk of 4 nM.

Turning to `COc1cc(Nc2nc(-c3ccc4c(c3)NCCO4)cn3ccnc23)ccc1N1CCOCC1` [Compound 14x, 6-(3,4-dihydro-2H-benzo[b][1,4]oxazin-6-yl)-N-(3-methoxy-4-moipholinophenyl)imidazo[1,2-a]pyrazin-8-amine, reference compound], the solubility at 24 h in “Kinetic solubility study” (setting [1]) was 87 µM (≈ 39.9 µg/mL); in the series “Kinetic solubility study” (setting [2]) it was 10 µM (≈ 4.59 µg/mL); in “Kinetic solubility study” (setting [3]), 8 µM (≈ 3.67 µg/mL).

Turning to `c1cn2cc(-c3ccc4c(c3)NCCO4)nc(Nc3ccc(N4CCN(C5COC5)CC4)cc3)c2n1` [Compound 24, 6-(3,4-dihydro-2H-benzo[b][1,4]oxazin-6-yl)-N-(4-(4-(oxetan-3-yl)piperazin-1-yl)phenyl)imidazo[1,2-a]pyrazin-8-amine], the values for the solubility at 24 h in “Kinetic solubility study” (setting [1]), in “Kinetic solubility study” (setting [2]) and in the series “Kinetic solubility study” (setting [3]) were 100 µM (≈ 48.4 µg/mL), 61 µM (≈ 29.5 µg/mL) and 33 µM (≈ 16 µg/mL), respectively. As to `c1cn2cc(-c3cnc4c(c3)NCCO4)nc(Nc3ccc(N4CCOCC4)cc3)c2n1` [Compound 28x, 6-(2,3-dihydro-1H-pyrido[2,3-b][1,4]oxazin-7-yl)-N-(4-morpholinophenyl)imidazo[1,2-a]pyrazin-8-amine, reference compound], the solubility at 24 h in the series “Kinetic solubility study” (setting [1]) amounted to 90 µM (≈ 38.7 µg/mL); in the series “Kinetic solubility study” (setting [2]), 9 µM (≈ 3.87 µg/mL); in “Kinetic solubility study” (setting [3]), 9 µM (≈ 3.87 µg/mL). For `c1cn2cc(-c3cnc4c(c3)NCCO4)nc(Nc3ccc(N4CCN5CCOC[C@@H]5C4)cc3)c2n1` [Compound 82, (S)-6-(2,3-dihydro-1H-pyrido[2,3-b][1,4]oxazin-7-yl)-N-(4-(hexahydropyrazino[2,1-c][1,4]oxazin-8(1H)-yl)phenyl)imidazo[1,2-a]pyrazin-8-amine], the IC50 against Syk is 3 nM. Same read-out and setting: the figure for `COc1cc(Nc2nc(-c3cnc4c(c3)NCCO4)cn3ccnc23)ccc1N1CCN(C2COC2)C(C)(C)C1` [Compound 84, 6-(2,3-dihydro-1H-pyrido[2,3-b][1,4]oxazin-7-yl)-N-(4-(3,3-dimethyl-4-(oxetan-3-yl)piperazin-1-yl)-3-methoxyphenyl)imidazo[1,2-a]pyrazin-8-amine] is 10 nM; for `COc1cc(Nc2nc(-c3cnc4c(c3)NCCO4)cn3ccnc23)ccc1N1CCN(C(=O)[C@H](C)O)CC1` [Compound 85, (S)-1-(4-(4-((6-(2,3-dihydro-1H-pyrido[2,3-b][1,4]oxazin-7-yl)imidazo[1,2-a]pyrazin-8-yl)amino)-2-methoxyphenyl)piperazin-1-yl)-2-hydroxypropan-1-one] it is 3 nM. For the molecule `COc1cc(Nc2nc(-c3ccc4cn[nH]c4c3)cn3ccnc23)ccc1N1CCOCC1` [Compound 90x, 6-(1H-indazol-6-yl)-N-(3-methoxy-4-morpholinophenyl)imidazo[1,2-a]pyrazin-8-amine, reference compound], the solubility at 24 h came out at 94 µM (≈ 41.5 µg/mL) in the series “Kinetic solubility study” (pH 2, aqueous buffer); 3 µM (≈ 1.32 µg/mL) in “Kinetic solubility study” (pH 5.4, aqueous buffer); 3 µM (≈ 1.32 µg/mL) in the series “Kinetic solubility study” (pH 7.4, aqueous buffer).

`COc1cc(Nc2nc(-c3cnc4c(c3)NCCO4)cn3ccnc23)ccc1N1CC(C)(O)C1` [Compound 98, 1-(4-((6-(2,3-dihydro-1H-pyrido[2,3-b][1,4]oxazin-7-yl)imidazo[1,2-a]pyrazin-8-yl)amino)-2-methoxyphenyl)-3-methylazetidin-3-ol] displayed an IC50 at Syk of 33 nM.

`COc1cc(Nc2nc(-c3cnc4c(c3)NCCO4)cn3ccnc23)ccc1N1CC2COCC2C1` (stereo not drawn) [Compound 99, 6-(2,3-dihydro-1H-pyrido[2,3-b][1,4]oxazin-7-yl)-N-(3-methoxy-4-(tetrahydro-1H-furo[3,4-c]pyrrol-5(3H)-yl)phenyl)imidazo[1,2-a]pyrazin-8-amine]: the IC50 at Syk was determined as 16 nM. Molecule `OC1(c2ccc(Nc3nc(-c4cnc5c(c4)NCCO5)cn4ccnc34)cc2)CCC1` [Compound 101, 1-(4-((6-(2,3-dihydro-1H-pyrido[2,3-b][1,4]oxazin-7-yl)imidazo[1,2-a]pyrazin-8-yl)amino)phenyl)cyclobutanol] registered an IC50 at Syk of 7 nM.

In the case of `OC1(c2ccc(Nc3nc(-c4cnc5c(c4)NCCO5)cn4ccnc34)cc2)COC1` [Compound 102, 3-(4-((6-(2,3-dihydro-1H-pyrido[2,3-b][1,4]oxazin-7-yl)imidazo[1,2-a]pyrazin-8-yl)amino)phenyl)oxetan-3-ol], on Syk, the IC50 was found to be 8 nM.

Take `COc1cc(Nc2nc(-c3cnc4c(c3)NCCO4)cn3ccnc23)ccc1N1CCC2(CC1)OCCO2` [Compound 103, 6-(2,3-dihydro-1H-pyrido[2,3-b][1,4]oxazin-7-yl)-N-(3-methoxy-4-(1,4-dioxa-8-azaspiro[4.5]decan-8-yl)phenyl)imidazo[1,2-a]pyrazin-8-amine]: the IC50 against Syk came to 3 nM.

`COc1cc(Nc2nc(-c3cnc4c(c3)NCCO4)cn3ccnc23)ccc1N1CCC(=O)CC1` [Compound 104, 1-(4-((6-(2,3-dihydro-1H-pyrido[2,3-b][1,4]oxazin-7-yl)imidazo[1,2-a]pyrazin-8-yl)amino)-2-methoxyphenyl)piperidin-4-one] had an IC50 at Syk of 4 nM. Still for that read-out and setting: under `COc1cc(Nc2nc(-c3cnc4c(c3)NCCO4)cn3ccnc23)ccc1N1CCC(=NO)CC1` [Compound 105, 1-(4-((6-(2,3-dihydro-1H-pyrido[2,3-b][1,4]oxazin-7-yl)imidazo[1,2-a]pyrazin-8-yl)amino)-2-methoxyphenyl)piperidin-4-one oxime] stands 5 nM; under `CON=C1CCN(c2ccc(Nc3nc(-c4cnc5c(c4)NCCO5)cn4ccnc34)cc2OC)CC1` [Compound 106, 1-(4-((6-(2,3-dihydro-1H-pyrido[2,3-b][1,4]oxazin-7-yl)imidazo[1,2-a]pyrazin-8-yl)amino)-2-methoxyphenyl)piperidin-4-one O-methyl oxime], 6 nM; under `CO/N=C(\C)c1ccc(Nc2nc(-c3cnc4c(c3)NCCO4)cn3ccnc23)cc1` [Compound 107, (E)-1-(4-((6-(2,3-dihydro-1H-pyrido[2,3-b][1,4]oxazin-7-yl)imidazo[1,2-a]pyrazin-8-yl)amino)phenyl)ethanone O-methyl oxime], 17 nM. Same read-out and setting: under `CO/N=C(/C)c1ccc(Nc2nc(-c3cnc4c(c3)NCCO4)cn3ccnc23)cc1` [Compound 108, (Z)-1-(4-((6-(2,3-dihydro-1H-pyrido[2,3-b][1,4]oxazin-7-yl)imidazo[1,2-a]pyrazin-8-yl)amino)phenyl)ethanone O-methyl oxime] stands 7 nM. `COc1cc(Nc2nc(-c3cnc4c(c3)NCCO4)cn3ccnc23)ccc1N1CCOCC1` [Example 5a, 6-(2,3-dihydro-1H-pyrido[2,3-b][1,4]oxazin-7-yl)-N-(3-methoxy-4-morpholinophenyl)imidazo[1,2-a]pyrazin-8-amine] returned a melting point of 233 to 234 °C. Take `c1cn2cc(-c3ccc4c(c3)NCCO4)nc(Nc3ccc(N4CCN(C5COC5)CC4)cc3)c2n1` [Example 24, 6-(3,4-dihydro-2H-benzo[b][1,4]oxazin-6-yl)-N-(4-(4-(oxetan-3-yl)piperazin-1-yl)phenyl)imidazo[1,2-a]pyrazin-8-amine]: the IC50 against Syk worked out at 11 nM.

These data come from patent US20130338142A1, “IMIDAZOPYRAZINE SYK INHIBITORS” (Gilead Connecticut, Inc., priority 2012, published 2013).
